These results are taken from patent US20200407365A1, “INDOLE-2-CARBONYL COMPOUNDS AND THEIR USE FOR THE TREATMENT OF HEPATITIS B” (Novartis AG, priority 2018, published 2020).

pEC50: −log10 of the molar value. Some results are limits rather than exact numbers.

For the experiment, the system named is HBV replication in HepG2.cl42 cells. In words: Anti-HBV assay (HBV DNA by quantitative real time PCR in HepG2.cl42 cells). Format: cell-based, HBV ayw strain. To be noted: Hepatitis B virus, 96 h, compound treatment four days, read-out: HBsAg EC50. For orientation: In qPCR the cycle at which signal appears reflects the starting amount.
With `COc1ccc2cc(C(=O)N3CCn4ncc(N5CC(C)(C)OC5=O)c4C3)[nH]c2c1` [Compound 2.13], the negative-log EC50 (pEC50) (usually −log10 of the EC50, conventionally taken in molar units) is 6.00 to 7.00.

As to `Cc1ccc2[nH]c(C(=O)N3CCn4ncc(N5CC(C)(C)OC5=O)c4C3)cc2c1` [Compound 2.15], the pEC50 is 6.00 to 7.00.

Turning to `CC1(C)CN(c2cnn3c2CN(C(=O)c2cc4c(F)cccc4[nH]2)CC3)C(=O)O1` [Compound 2.22], the negative logarithm of the EC50 (pEC50) was greater than 7.00.

In the case of `O=C(c1cc2ccccc2[nH]1)N1CCn2ncc(N3CCCCC3=O)c2C1` [Compound 1.6], the negative logarithm of the EC50 (pEC50) was 6.00 to 7.00.

For `Cc1cccc2[nH]c(C(=O)N3CCn4ncc(N5CC(C)(C)OC5=O)c4C3)cc12` [Compound 2.14], the negative-log EC50 (pEC50) is greater than 7.00.

Turning to `COc1cccc2cc(C(=O)N3CCn4ncc(N5CC(C)(C)OC5=O)c4C3)[nH]c12` [Compound 2.19], the pEC50 is less than 6.00.

Turning to `COC[C@@H]1CN(c2cnn3c2CN(C(=O)c2cc4ccccc4[nH]2)CC3)C(=O)O1` [Compound 3.2], the pEC50 is 6.00 to 7.00.

Turning to `CC1(C)CN(c2cnn3c2CN(C(=O)c2cc4ccccc4[nH]2)CC3)C(=O)CO1` [Compound 1.5], the pEC50 was 6.00 to 7.00.

Regarding `O=C(c1cc2ccccc2[nH]1)N1CCn2ncc(N3CCOCC3=O)c2C1` [Compound 1.4], the pEC50 is 6.00 to 7.00.

As to `CC1(C)CN(c2cnn3c2CN(C(=O)c2cc4cnc(Cl)cc4[nH]2)CC3)C(=O)O1` [Compound 2.21], the pEC50 is 6.00 to 7.00.

As for `Cc1cccc2cc(C(=O)N3CCn4ncc(N5CC(C)(C)OC5=O)c4C3)[nH]c12` [Compound 2.18], the pEC50 is 6.00 to 7.00.

Consider `C[C@H]1Cn2ncc(N3CC(C)(C)OC3=O)c2CN1C(=O)c1cc2ccccc2[nH]1` [Compound 2.23], for which the pEC50 was less than 6.00.

In the case of `COc1ccc2[nH]c(C(=O)N3CCn4ncc(N5CC(C)(C)OC5=O)c4C3)cc2c1` [Compound 2.10], the pEC50 is less than 6.00.

As to `CC1(C)CCN(c2cnn3c2CN(C(=O)c2cc4ccccc4[nH]2)CC3)C1=O` [Compound 1.1, 1-(5-(1H-indole-2-carbonyl)-4,5,6,7-tetrahydropyrazolo[1,5-a]pyrazin-3-yl)-3,3-dimethylpyrrolidin-2-one], the negative logarithm of the EC50 (pEC50) was less than 6.00.

Consider `CC1(C)CN(c2cnn3c2CN(C(=O)c2cc4cccc(F)c4[nH]2)CC3)C(=O)O1` [Compound 2.17], for which the pEC50 is 6.00 to 7.00.

As to `CC1(C)CN(c2cnn3c2CN(C(=O)c2cc4cc(Cl)ccc4[nH]2)CC3)C(=O)O1` [Compound 2.16], the pEC50 is 6.00 to 7.00.

In the case of `CC1(C)CN(c2cnn3c2CN(C(=O)c2[nH]c4ccccc4c2C#N)CC3)C(=O)O1` [Compound 2.4], the pEC50 was less than 6.00.

Take `CC1(C)CC(=O)N(c2cnn3c2CN(C(=O)c2cc4ccccc4[nH]2)CC3)C1` [Compound 1.2]: the pEC50 is 6.00 to 7.00.

For `CC1(C)CN(c2cnn3c2CN(C(=O)c2cc4ccc(F)cc4[nH]2)CC3)C(=O)O1` [Compound 2.7], the negative logarithm of the EC50 (pEC50) was greater than 7.00.

Regarding `COC[C@@H]1CN(c2cnn3c2CN(C(=O)c2cc4ccccc4[nH]2)CC3)C(=O)CO1` [Compound 1.3], the pEC50 is 6.00 to 7.00.

For the compound `O=C(c1cc2ccccc2[nH]1)N1CCc2noc(N3CCCCC3=O)c2C1` [Compound 4.1, 1-(5-(1H-indole-2-carbonyl)-4,5,6,7-tetrahydroisoxazolo[4,3-c]pyridin-3-yl)piperidin-2-one], the pEC50 is greater than 7.00.

`CC1(C)CN(c2cnn3c2CN(C(=O)c2cc4cccc(Cl)c4[nH]2)CC3)C(=O)O1` [Compound 2.9]: the negative logarithm of the EC50 (pEC50) was 6.00 to 7.00.

Regarding `CC1(C)CN(c2cnn3c2CN(C(=O)c2cc4ccc(Cl)cc4[nH]2)CC3)C(=O)O1` [Compound 2.8], the pEC50 was greater than 7.00.

As for `CC1(C)COC(=O)N(c2cnn3c2CN(C(=O)c2cc4ccccc4[nH]2)CC3)C1` [Compound 3.3], the negative-log EC50 (pEC50) was 6.00 to 7.00.

Turning to `CC1(C)CN(c2cnn3c2CN(C(=O)c2cc4c(Cl)cccc4[nH]2)CC3)C(=O)O1` [Compound 2.20], the pEC50 is greater than 7.00.

`CCc1c(C(=O)N2CCn3ncc(N4CC(C)(C)OC4=O)c3C2)[nH]c2ccccc12` [Compound 2.3]: the pEC50 is less than 6.00.

Take `CC1(C)CN(c2cnn3c2CN(C(=O)c2cc4ccccc4[nH]2)CC3)C(=O)O1` [Compound 2.1, 3-(5-(1H-indole-2-carbonyl)-4,5,6,7-tetrahydropyrazolo[1,5-a]pyrazin-3-yl)-5,5-dimethyloxazolidin-2-one]: the pEC50 is greater than 7.00.

With `COC[C@H]1CN(c2cnn3c2CN(C(=O)c2cc4ccccc4[nH]2)CC3)C(=O)O1` [Compound 3.1, (R)-3-(5-(1H-indole-2-carbonyl)-4,5,6,7-tetrahydropyrazolo[1,5-a]pyrazin-3-yl)-5-(methoxymethyl)oxazolidin-2-one], the negative-log EC50 (pEC50) was greater than 7.00.

Consider `CC1(C)CN(c2cnn3c2CN(C(=O)c2[nH]c4ccccc4c2Cl)CC3)C(=O)O1` [Compound 2.5], for which the pEC50 is less than 6.00.

Turning to `Cc1c(C(=O)N2CCn3ncc(N4CC(C)(C)OC4=O)c3C2)[nH]c2ccccc12` [Compound 2.2], the pEC50 is less than 6.00.

With `CC1(C)CN(c2cnn3c2CN(C(=O)c2cc4ccc(C#N)cc4[nH]2)CC3)C(=O)O1` [Compound 2.11], the negative-log EC50 (pEC50) is 6.00 to 7.00.

As for `Cc1ccc2cc(C(=O)N3CCn4ncc(N5CC(C)(C)OC5=O)c4C3)[nH]c2c1` [Compound 2.12], the pEC50 is greater than 7.00.

Take `CC1(C)CN(c2cnn3c2CN(C(=O)c2cc4cc(F)ccc4[nH]2)CC3)C(=O)O1` [Compound 2.6]: the pEC50 was greater than 7.00.
